In patent publication US8778871B2 (Takeda Pharmaceutical Company Limited, priority 2004, dated 2014):
Non-standard residues stand in square brackets, D forms with d. Residues, ends and D or L forms follow the SMILES beside them. Primed or numbered codes have the meaning given here. No end group written: not given here. *: point of attachment. 2Nal = N[C@@H](Cc1ccc2ccccc2c1)C(=O)O; Arg(Me) = CNC(=N)NCCC[C@H](N)C(=O)O; Lys(Me2) = CN(C)CCCC[C@H](N)C(=O)O; hPhe = N[C@@H](CCc1ccccc1)C(=O)O; 2Thi = N[C@@H](Cc1cccs1)C(=O)O; Cha = N[C@@H](CC1CCCCC1)C(=O)O; NMeN = CN[C@@H](CC(N)=O)C(=O)O; Tos = Cc1ccc(S(=O)(=O)*)cc1; NMeS = CN[C@@H](CO)C(=O)O; Abu = CC[C@H](N)C(=O)O; Dap = NC[C@H](N)C(=O)O; Aib = CC(C)(N)C(=O)O; Bz = O=C(c1ccccc1)*; GABA = NCCCC(=O)O; azaGly = NNC(=O)O; For = O=C*

Biological target: T1, hOT7T175 (Homo sapiens, UniProt Q969F8, L364H)
T1 construct: expressed in transfected cells
Format: cell-based
Conditions: hOT7T175/CHO, FLIPR, evaluation for 40 seconds after initiation of the reaction

T1 sequence (Q969F8 whole entry L364H): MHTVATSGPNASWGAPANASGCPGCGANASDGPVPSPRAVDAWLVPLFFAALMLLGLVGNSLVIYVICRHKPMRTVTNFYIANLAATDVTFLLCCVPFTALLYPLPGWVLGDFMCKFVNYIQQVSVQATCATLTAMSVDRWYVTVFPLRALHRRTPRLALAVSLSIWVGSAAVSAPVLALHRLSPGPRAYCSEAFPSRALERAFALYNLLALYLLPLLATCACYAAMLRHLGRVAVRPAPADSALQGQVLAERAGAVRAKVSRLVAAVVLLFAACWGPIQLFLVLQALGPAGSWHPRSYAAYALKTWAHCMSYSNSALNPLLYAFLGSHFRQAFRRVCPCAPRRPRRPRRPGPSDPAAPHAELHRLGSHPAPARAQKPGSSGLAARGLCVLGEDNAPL

Compound	Specific Act. (EC50/MS10 EC50)
Ac-[dY][dW][Abu]SF[azaGly]L[Arg(Me)]W-NH2 [Compound No. 573]	0.7
Ac-D-Tyr-D-Pya(4)-Asn-Thr-D-Phe-AzaGly-Leu-Arg(Me)-Trp-NH2 [Compound No. 603]	1.7
Ac-D-Tyr-D-Trp-Asn-Thr-PheΨ(CH2NH)Gly-Leu-Arg(Me)-Trp-NH2 [Compound No. 569]	0.5
Ac-[dY][dW][Dap](For)SF[azaGly]L[Arg(Me)]W-NH2 [Compound No. 585]	0.4
Ac-[dY][dW]NT[2Nal][azaGly]L[Arg(Me)]W-NH2 [Compound No. 694]	1.7
Ac-[dY][dW][Dap]SF[azaGly]L[Arg(Me)]W-NH2 [Compound No. 701]	1.4
Ac-[dY][dW]NT[dF]GL[Arg(Me)]W-NH2 [Compound No. 601]	3.1
Ac-D-Tyr-D-Trp-Asn-Thr-Phe-AzaGly-Leu-Arg(Me)-D-Trp-NH2 (Ac-[dY][dW]NTF[azaGly]L[Arg(Me)][dW]-NH2; SMILES CNC(=N)NCCC[C@H](NC(=O)[C@H](CC(C)C)NC(=O)NNC(=O)[C@H](Cc1ccccc1)NC(=O)[C@@H](NC(=O)[C@H](CC(N)=O)NC(=O)[C@@H](Cc1c[nH]c2ccccc12)NC(=O)[C@@H](Cc1ccc(O)cc1)NC(C)=O)[C@@H](C)O)C(=O)N[C@H](Cc1c[nH]c2ccccc12)C(N)=O) [Compound No. 689]	2.3
Ac-[dY][dW]SSF[azaGly]L[Arg(Me)]W-NH2 [Compound No. 577]	0.7
Ac-D-Tyr-D-Trp-Asn-Thr-Phe-AzaGly-Ile-Arg(Me)-Trp-NH2 (Ac-[dY][dW]NTF[azaGly]I[Arg(Me)]W-NH2; SMILES CC[C@H](C)[C@H](NC(=O)NNC(=O)[C@H](Cc1ccccc1)NC(=O)[C@@H](NC(=O)[C@H](CC(N)=O)NC(=O)[C@@H](Cc1c[nH]c2ccccc12)NC(=O)[C@@H](Cc1ccc(O)cc1)NC(C)=O)[C@@H](C)O)C(=O)N[C@@H](CCCNC(=N)NC)C(=O)N[C@@H](Cc1c[nH]c2ccccc12)C(N)=O) [Compound No. 678]	1.1
Ac-D-Tyr-D-Trp-Asn-Thr-Phe-AzaGly-γMeLeu-Arg(Me)-Trp-NH2 (Ac-[dY][dW]NTF[azaGly]-{γMeLeu-Arg(Me)-Trp-NH2}) [Compound No. 699]	1.3
Amidino-D-Tyr-D-Trp-Asn-Thr-Phe-AzaGly-Leu-Arg(Me)-Trp-NH2 [Compound No. 614]	0.8
Ac-D-Tyr-D-Trp-Asn-Thr-Tyr-AzaGly-Leu-Arg(Me)-Trp-NH2 (Ac-[dY][dW]NTY[azaGly]L[Arg(Me)]W-NH2; SMILES CNC(=N)NCCC[C@H](NC(=O)[C@H](CC(C)C)NC(=O)NNC(=O)[C@H](Cc1ccc(O)cc1)NC(=O)[C@@H](NC(=O)[C@H](CC(N)=O)NC(=O)[C@@H](Cc1c[nH]c2ccccc12)NC(=O)[C@@H](Cc1ccc(O)cc1)NC(C)=O)[C@@H](C)O)C(=O)N[C@@H](Cc1c[nH]c2ccccc12)C(N)=O) [Compound No. 691]	1.1
3-Phenylpropionyl-Asn-Ser(Ac)-Phe-AzaGly-Leu-Arg(Me)-Trp-NH2 [Compound No. 546]	1.9
Ac-[dE][dW]NTF[azaGly]L[Arg(Me)]W-NH2 [Compound No. 622]	2.8
Ac-D-Tyr-D-Trp-Asn-Thr-Phe-AzaGly-Leu-Har(Me)-Trp-NH2 [Compound No. 646]	1.8
3-Phenylpropionyl-Asn-D-Pro-Phe-AzaGly-Leu-Arg(Me)-Trp-NH2 [Compound No. 533]	9.7
Ac-D-Tyr-D-Pro-Asn-Thr-Phe-AzaGly-Leu-Arg(Me)-Trp-NH2 (Ac-[dY][dP]NTF[azaGly]L[Arg(Me)]W-NH2; SMILES CNC(=N)NCCC[C@H](NC(=O)[C@H](CC(C)C)NC(=O)NNC(=O)[C@H](Cc1ccccc1)NC(=O)[C@@H](NC(=O)[C@H](CC(N)=O)NC(=O)[C@H]1CCCN1C(=O)[C@@H](Cc1ccc(O)cc1)NC(C)=O)[C@@H](C)O)C(=O)N[C@@H](Cc1c[nH]c2ccccc12)C(N)=O) [Compound No. 661]	8.5
Ac-[dY][dW]NTF[azaGly]L[Arg(Me)][hPhe]-NH2 [Compound No. 594]	2.1
Ac-[dY][dW]NT[Cha][azaGly]L[Arg(Me)]W-NH2 [Compound No. 696]	0.5
Ac-[dY][dW][Dap](Ac)SF[azaGly]L[Arg(Me)]W-NH2 [Compound No. 584]	0.4
Ac-D-Tyr-D-Trp-Asn-Thr-Phe-AzaGly-Abu-Arg(Me)-Trp-NH2 (Ac-[dY][dW]NTF[azaGly][Abu][Arg(Me)]W-NH2; SMILES CC[C@H](NC(=O)NNC(=O)[C@H](Cc1ccccc1)NC(=O)[C@@H](NC(=O)[C@H](CC(N)=O)NC(=O)[C@@H](Cc1c[nH]c2ccccc12)NC(=O)[C@@H](Cc1ccc(O)cc1)NC(C)=O)[C@@H](C)O)C(=O)N[C@@H](CCCNC(=N)NC)C(=O)N[C@@H](Cc1c[nH]c2ccccc12)C(N)=O) [Compound No. 698]	2.2
Ac-[dY][dW][dN]TF[azaGly]L[Arg(Me)]W-NH2 [Compound No. 653]	1.3

Compound	Specific Act. (EC50/MS10 EC50)
Ac-[dY][dW][NMeN]TF[azaGly]L[Arg(Me)]W-NH2 [Compound No. 655]	4.7
Ac-[dY][dW]NTF[azaGly]L[Lys(Me2)]W-NH2 [Compound No. 610]	1.9
Ac-[dY][dW]NTF[azaGly]LR(Tos)W-NH2 [Compound No. 604]	6.3
D-Trp-Asn-Thr-Phe-AzaGly-Leu-Arg(Me)-Trp-NH2 ([dW]NTF[azaGly]L[Arg(Me)]W-NH2; N-terminus assumed; SMILES CNC(=N)NCCC[C@H](NC(=O)[C@H](CC(C)C)NC(=O)NNC(=O)[C@H](Cc1ccccc1)NC(=O)[C@@H](NC(=O)[C@H](CC(N)=O)NC(=O)[C@H](N)Cc1c[nH]c2ccccc12)[C@@H](C)O)C(=O)N[C@@H](Cc1c[nH]c2ccccc12)C(N)=O) [Compound No. 665]	1.1
Me-D-Tyr-D-Trp-Asn-Thr-Phe-AzaGly-Leu-Arg(Me)-Trp-NH2 [Compound No. 570]	0.5
3-Phenylpropionyl-Asn-Pic(2)-Phe-AzaGly-Leu-Arg(Me)-Trp-NH2 [Compound No. 531]	1.8
Ac-[dY][dW]NT[2Thi][azaGly]L[Arg(Me)]W-NH2 [Compound No. 695]	0.7
3-Phenylpropionyl-Asn-Aze(2)-Phe-AzaGly-Leu-Arg(Me)-Trp-NH2 [Compound No. 532]	1.0
D-Tyr-D-Pya(4)-Asn-Pro-Phe-AzaGly-Leu-Arg(Me)-Trp-NH2 [Compound No. 528]	1.4
Ac-D-Tyr-D-Trp-Asn-Thr-Phe-AzaGly-Leu-Pya(4)-Trp-NH2 (Ac-[dY][dW]NTF[azaGly]L-{Pya(4)-Trp-NH2}) [Compound No. 688]	9.7
Ac-D-Tyr-D-Trp-Asn-Thr-Trp-AzaGly-Leu-Arg(Me)-Trp-NH2 (Ac-[dY][dW]NTW[azaGly]L[Arg(Me)]W-NH2; SMILES CNC(=N)NCCC[C@H](NC(=O)[C@H](CC(C)C)NC(=O)NNC(=O)[C@H](Cc1c[nH]c2ccccc12)NC(=O)[C@@H](NC(=O)[C@H](CC(N)=O)NC(=O)[C@@H](Cc1c[nH]c2ccccc12)NC(=O)[C@@H](Cc1ccc(O)cc1)NC(C)=O)[C@@H](C)O)C(=O)N[C@@H](Cc1c[nH]c2ccccc12)C(N)=O) [Compound No. 692]	0.7
3-Phenylpropionyl-Asn-Pro-Phe-AzaGly-Leu-Arg(Me)-Trp-NH2 [Compound No. 524]	1.1
Benzoyl-D-Trp-Asn-Thr-Phe-AzaGly-Leu-Arg(Me)-Trp-NH2 (Bz-[dW]NTF[azaGly]L[Arg(Me)]W-NH2; SMILES CNC(=N)NCCC[C@H](NC(=O)[C@H](CC(C)C)NC(=O)NNC(=O)[C@H](Cc1ccccc1)NC(=O)[C@@H](NC(=O)[C@H](CC(N)=O)NC(=O)[C@@H](Cc1c[nH]c2ccccc12)NC(=O)c1ccccc1)[C@@H](C)O)C(=O)N[C@@H](Cc1c[nH]c2ccccc12)C(N)=O) [Compound No. 669]	0.5
Cyclopropanecarbonyl-Asn-Ser-Phe-AzaGly-Leu-Arg(Me)-Trp-NH2 [Compound No. 534]	5.6
CNC(=N)NCCC[C@H](NC(=O)[C@H](CC(C)C)NC(=O)NNC(=O)[C@H](Cc1ccccc1)NC(=O)[C@H](CO)NC(=O)[C@H](CC(N)=O)NC(=O)[C@H](CO)NC(=O)[C@H](N)Cc1ccc(O)cc1)C(=O)N[C@@H](Cc1ccccc1)C(N)=O [Compound No. 239, D-Tyr-Ser-Asn-Ser-Phe-AzaGly-Leu-Arg(Me)-Phe-NH2] (H-[dY]SNSF[azaGly]L[Arg(Me)]F-NH2)	6.7
[dR][dR][dR][GABA][dY][dW]NTF[azaGly]L[Arg(Me)]W-NH2 [Compound No. 557]	3.2
Ac-D-Tyr-D-Trp-Asn-Thr-Phe-Gly-Aib-Arg(Me)-Trp-NH2 (Ac-[dY][dW]NTFG[Aib][Arg(Me)]W-NH2; SMILES CNC(=N)NCCC[C@H](NC(=O)C(C)(C)NC(=O)CNC(=O)[C@H](Cc1ccccc1)NC(=O)[C@@H](NC(=O)[C@H](CC(N)=O)NC(=O)[C@@H](Cc1c[nH]c2ccccc12)NC(=O)[C@@H](Cc1ccc(O)cc1)NC(C)=O)[C@@H](C)O)C(=O)N[C@@H](Cc1c[nH]c2ccccc12)C(N)=O) [Compound No. 700]	0.8
Ac-[dY][dW]N[NMeS]F[azaGly]L[Arg(Me)]W-NH2 [Compound No. 656]	2.9
2-Naphthoyl-Asn-Ser-Phe-AzaGly-Leu-Arg(Me)-Trp-NH2 [Compound No. 535]	0.8
Ac-[dY][dW]NTE[azaGly]L[Arg(Me)]W-NH2 [Compound No. 634]	10.5
Ac-[dY][dW]NTF[azaGly]LKW-NH2 [Compound No. 639]	2
Ac-[dY][dW]NT[dF][azaGly]L[Arg(Me)]W-NH2 [Compound No. 597]	0.6
